Here are results for three compounds from patent US9708314B2, “Heterocyclic amide compound” (NISSAN CHEMICAL INDUSTRIES, LTD., priority 2013, dated 2017).

Common to all, as to type: in vivo
The test system of one data set is Digitaria ciliaris. The data set is described as follows: Test Example 4: herbicidal effect by application to foliage (diluvial soil, plastic box). To be noted: for F (Digitaria ciliaris) herbicidal effect: application to foliage, application herbicide amount 320 g/ha. Put shortly:
(§1)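 Scores run from 0 (herbicidal ratio ≤5%) to 5 (≥90%, almost fully withered) and were assessed three weeks after foliar spraying. Seedlings had been raised for 14 days at 25-30° C in sterilized diluvial soil before treatment, with the emulsion diluted in water to the stated g/ha dose.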

The next data set relates to Avena fatua. The data set is described as above. The following applies: for I (Avena fatua) herbicidal effect: application to foliage, application herbicide amount 320 g/ha. Put shortly:
as §1

For the next data set, the system named is Abutilon theophrasti. The data set is described as above. The following applies: for M (Abutilon theophrasti) herbicidal effect: application to foliage, application herbicide amount 320 g/ha. In a few lines:
as §1

Data set [1] deals with Echinochloa crus-galli var. crus-galli. The data set is described as above. To be noted: for H (Echinochloa crus-galli var. crus-galli) herbicidal effect: application to foliage, application herbicide amount 320 g/ha. Put shortly: as §1
The subject of another data set is Galium spurium. The data set is described as above. The following applies: for Q (Galium spurium) herbicidal effect: application to foliage, application herbicide amount 320 g/ha. In a few lines:
as §1

For a further data set, the system named is Chenopodium album. The data set is described as above. To be noted: for O (Chenopodium album) herbicidal effect: application to foliage, application herbicide amount 320 g/ha. Put shortly: as §1
A further data set deals with Alopecurus myosuroides. Described as above. To be noted: for J (Alopecurus myosuroides) herbicidal effect: application to foliage, application herbicide amount 320 g/ha. In a few lines: as §1
For another data set, the system named is Apera spica-venti. The description is as above. The following applies: for L (Apera spica-venti.) herbicidal effect: application to foliage, application herbicide amount 320 g/ha. In a few lines: as §1
The next data set relates to Setaria viridis. The description is as above. The following applies: for G (Setaria viridis) herbicidal effect: application to foliage, application herbicide amount 320 g/ha. Put shortly:
as §1

For a further data set, the system named is Lolium multiflorum Lam. Described as above. The following applies: for K (Lolium multiflorum Lam.) herbicidal effect: application to foliage, application herbicide amount 320 g/ha. In a few lines:
as §1

Another data set deals with Veronica persica. The data set is described as above. The following applies: for R (Veronica persica) herbicidal effect: application to foliage, application herbicide amount 320 g/ha. Put shortly:
as §1

A further data set relates to Zea mays. The data set is described as follows: Test Example 4: effect on crop by application to foliage (diluvial soil, plastic box). To be noted: for b (Zea mays) effect on crop: application to foliage, application herbicide amount 320 g/ha. In a few lines:
as §1

For data set [2], the system named is Beta vulgaris ssp. vulgaris. The description is as above. The following applies: for f (Beta vulgaris ssp. vulgaris) effect on crop: application to foliage, application herbicide amount 320 g/ha. Put shortly: as §1
The test system of another data set is Glycine max. The description is as above. The following applies: for c (Glycine max) effect on crop: application to foliage, application herbicide amount 320 g/ha. In a few lines: as §1
In data set [3] the test system is directly sowed Oryza sativa. Described as above. The following applies: for d (directly sowed Oryza sativa) effect on crop: application to foliage, application herbicide amount 320 g/ha. In a few lines: as §1
A further data set relates to Brassica campestris L. Described as above. To be noted: for g (Brassica campestris L.) effect on crop: application to foliage, application herbicide amount 320 g/ha. Put shortly: as §1
Another data set concerns Triticum aestivum. Described as above. To be noted: for e (Triticum aestivum) effect on crop: application to foliage, application herbicide amount 320 g/ha. Put shortly:
as §1

For data set [4], the system named is Echinochloa oryzacola Vasing. The data set can be described thus: Test Example 2: herbicidal activity, application during weed generation in submerged conditions. To be noted: Eighteenth Table. Put shortly: (§2)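 Alluvial soil in Wagner pots flooded to 4 cm water depth; seeds sown mixed, grown in greenhouse at 25–30 °C. At one- to two-leaf stage, emulsion diluted with water to the set rate (g/ha) was applied to the water surface. Effect scored 0–5 by herbicidal ratio three weeks later.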

Another data set concerns Monochoria vaginalis. The description is as above. The following applies: Eighteenth Table. In a few lines:
as §2

A further data set concerns Scirpus juncoides. Described as above. To be noted: Eighteenth Table. In a few lines: as §2
The mark [5] stands for this setting: application herbicide amount 320 g/ha.
The mark [6] stands for this setting: application herbicide amount 192 g/ha.

With `CCOC(=O)Cc1nnc2c(C(=O)Nc3nnc(C)o3)ccc(C(F)(F)F)n12` [1-042], in the data set on Digitaria ciliaris, the “F (Digitaria ciliaris) herbicidal effect” value is 4 (Herbicidal ratio of 70% or more and less than 90%). Also, the “I (Avena fatua) herbicidal effect” value with Avena fatua is 2 (Herbicidal ratio of 20% or more and less than 40%). Also, in the data set with Abutilon theophrasti, the “M (Abutilon theophrasti) herbicidal effect” value was 4 (Herbicidal ratio of 70% or more and less than 90%). Further, in data set [1], the “H (Echinochloa crus-galli var. crus-galli) herbicidal effect” value is listed as 5 (Herbicidal ratio of 90% or more (almost completely withered)). Moreover, the “Q (Galium spurium) herbicidal effect” value in the data set on Galium spurium is 3 (Herbicidal ratio of 40% or more and less than 70%). In the data set on Chenopodium album, the “O (Chenopodium album) herbicidal effect” value is reported as 5 (Herbicidal ratio of 90% or more (almost completely withered)). For the same compound, the “J (Alopecurus myosuroides) herbicidal effect” value with Alopecurus myosuroides was 0 (Herbicidal ratio of 5% or less (almost no effect)). Moreover, the “L (Apera spica-venti.) herbicidal effect” value with Apera spica-venti. is 2 (Herbicidal ratio of 20% or more and less than 40%). In the data set with Setaria viridis, the “G (Setaria viridis) herbicidal effect” value is 3 (Herbicidal ratio of 40% or more and less than 70%). Moreover, in the data set on Lolium multiflorum Lam., the “K (Lolium multiflorum Lam.) herbicidal effect” value is 0 (Herbicidal ratio of 5% or less (almost no effect)). Also, in the data set on Veronica persica, the “R (Veronica persica) herbicidal effect” value was 4 (Herbicidal ratio of 70% or more and less than 90%). Also, in the data set on Zea mays, the “b (Zea mays) effect on crop” value is on record as 0 (Herbicidal ratio of 5% or less (almost no effect)). The “f (Beta vulgaris ssp. vulgaris) effect on crop” value in [2] is recorded as 5 (Herbicidal ratio of 90% or more (almost completely withered)). Further, in the data set on Glycine max, the “c (Glycine max) effect on crop” value is 1 (Herbicidal ratio of 5% or more and less than 20%). The “d (directly sowed Oryza sativa) effect on crop” value in [3] is 3 (Herbicidal ratio of 40% or more and less than 70%). Moreover, the “g (Brassica campestris L.) effect on crop” value in the data set on Brassica campestris L. was 3 (Herbicidal ratio of 40% or more and less than 70%). In addition, in the data set on Triticum aestivum, the “e (Triticum aestivum) effect on crop” value is 0 (Herbicidal ratio of 5% or less (almost no effect)). Moreover, the “A (Echinochloa oryzicola Vasing.) herbicidal ratio grade” value in [4] (setting [5]) was 1 (Herbicidal ratio of 5% or more and less than 20%). Further, the “C (Monochoria vaginalis) herbicidal ratio grade” value in the data set with Monochoria vaginalis (setting [5]) is 3 (Herbicidal ratio of 40% or more and less than 70%). Further, the “B (Scirpus juncoides) herbicidal ratio grade” value in the data set with Scirpus juncoides (setting [5]) is 2 (Herbicidal ratio of 20% or more and less than 40%).

Regarding `CC(C)c1nnc2c(C(=O)Nc3nnc(C4CC4)o3)ccc(C(F)(F)F)n12` [1-051], the “F (Digitaria ciliaris) herbicidal effect” value with Digitaria ciliaris was 3 (Herbicidal ratio of 40% or more and less than 70%). Moreover, the “I (Avena fatua) herbicidal effect” value in the data set with Avena fatua was 1 (Herbicidal ratio of 5% or more and less than 20%). Besides, the “M (Abutilon theophrasti) herbicidal effect” value in the data set with Abutilon theophrasti is on record as 5 (Herbicidal ratio of 90% or more (almost completely withered)). Besides, in data set [1], the “H (Echinochloa crus-galli var. crus-galli) herbicidal effect” value was 4 (Herbicidal ratio of 70% or more and less than 90%). Moreover, the “Q (Galium spurium) herbicidal effect” value in the data set with Galium spurium was 2 (Herbicidal ratio of 20% or more and less than 40%). For the same compound, the “O (Chenopodium album) herbicidal effect” value with Chenopodium album is recorded as 5 (Herbicidal ratio of 90% or more (almost completely withered)). The “J (Alopecurus myosuroides) herbicidal effect” value with Alopecurus myosuroides is given as 0 (Herbicidal ratio of 5% or less (almost no effect)). The “L (Apera spica-venti.) herbicidal effect” value with Apera spica-venti. is 1 (Herbicidal ratio of 5% or more and less than 20%). Moreover, the “G (Setaria viridis) herbicidal effect” value with Setaria viridis is 3 (Herbicidal ratio of 40% or more and less than 70%). The “K (Lolium multiflorum Lam.) herbicidal effect” value with Lolium multiflorum Lam. is 1 (Herbicidal ratio of 5% or more and less than 20%). Further, the “R (Veronica persica) herbicidal effect” value with Veronica persica was 3 (Herbicidal ratio of 40% or more and less than 70%). Besides, the “b (Zea mays) effect on crop” value in the data set with Zea mays was 0 (Herbicidal ratio of 5% or less (almost no effect)). In data set [2], the “f (Beta vulgaris ssp. vulgaris) effect on crop” value was 3 (Herbicidal ratio of 40% or more and less than 70%). Moreover, the “c (Glycine max) effect on crop” value in the data set with Glycine max is 0 (Herbicidal ratio of 5% or less (almost no effect)). For the same compound, the “d (directly sowed Oryza sativa) effect on crop” value in data set [3] is 1 (Herbicidal ratio of 5% or more and less than 20%). Further, the “g (Brassica campestris L.) effect on crop” value in the data set with Brassica campestris L. was 1 (Herbicidal ratio of 5% or more and less than 20%). In addition, the “e (Triticum aestivum) effect on crop” value in the data set on Triticum aestivum was 1 (Herbicidal ratio of 5% or more and less than 20%). The “A (Echinochloa oryzicola Vasing.) herbicidal ratio grade” value in data set [4] (setting [5]) was 4 (Herbicidal ratio of 70% or more and less than 90%). In addition, the “C (Monochoria vaginalis) herbicidal ratio grade” value with Monochoria vaginalis (setting [5]) is 4 (Herbicidal ratio of 70% or more and less than 90%). The “B (Scirpus juncoides) herbicidal ratio grade” value in the data set with Scirpus juncoides (setting [5]) was 3 (Herbicidal ratio of 40% or more and less than 70%).

Consider `Cc1cc(C(=O)Nc2nnnn2C)c2nnc(C(C)C)n2c1C(F)(F)F` [2-050], for which the “F (Digitaria ciliaris) herbicidal effect grade” value in the data set with Digitaria ciliaris (foliage application, 192 g/ha) was 3 (Herbicidal ratio of 40% or more and less than 70%). In the data set on Avena fatua (foliage application, 192 g/ha), the “I (Avena fatua) herbicidal effect grade” value was 2 (Herbicidal ratio of 20% or more and less than 40%). For the same compound, the “M (Abutilon theophrasti) herbicidal effect grade” value in the data set with Abutilon theophrasti (foliage application, 192 g/ha) is 3 (Herbicidal ratio of 40% or more and less than 70%). The “H (Echinochloa crus-galli var. crus-galli) herbicidal effect grade” value in data set [1] (foliage application, 192 g/ha) is 3 (Herbicidal ratio of 40% or more and less than 70%). The “Q (Galium spurium) herbicidal effect grade” value in the data set on Galium spurium (foliage application, 192 g/ha) is recorded as 0 (Herbicidal ratio of 5% or less (almost no effect)). The “O (Chenopodium album) herbicidal effect grade” value in the data set with Chenopodium album (foliage application, 192 g/ha) is recorded as 5 (Herbicidal ratio of 90% or more (almost completely withered)). The “J (Alopecurus myosuroides) herbicidal effect grade” value in the data set on Alopecurus myosuroides (foliage application, 192 g/ha) is 0 (Herbicidal ratio of 5% or less (almost no effect)). For the same compound, in the data set on Apera spica-venti. (foliage application, 192 g/ha), the “L (Apera spica-venti.) herbicidal effect grade” value was 0 (Herbicidal ratio of 5% or less (almost no effect)). In addition, the “G (Setaria viridis) herbicidal effect grade” value in the data set with Setaria viridis (foliage application, 192 g/ha) was 1 (Herbicidal ratio of 5% or more and less than 20%). Further, the “K (Lolium multiflorum Lam.) herbicidal effect grade” value with Lolium multiflorum Lam. (foliage application, 192 g/ha) was 0 (Herbicidal ratio of 5% or less (almost no effect)). In the data set with Veronica persica (foliage application, 192 g/ha), the “R (Veronica persica) herbicidal effect grade” value is 3 (Herbicidal ratio of 40% or more and less than 70%). Also, the “b (Zea mays) effect on crop grade” value in the data set with Zea mays (foliage application, 192 g/ha) is listed as 0 (Herbicidal ratio of 5% or less (almost no effect)). Besides, the “f (Beta vulgaris ssp. vulgaris) effect on crop grade” value in data set [2] (foliage application, 192 g/ha) was 3 (Herbicidal ratio of 40% or more and less than 70%). The “c (Glycine max) effect on crop grade” value in the data set on Glycine max (foliage application, 192 g/ha) is given as 0 (Herbicidal ratio of 5% or less (almost no effect)). Moreover, the “d (directly sowed Oryza sativa) effect on crop grade” value in [3] (foliage application, 192 g/ha) is 3 (Herbicidal ratio of 40% or more and less than 70%). In addition, in the data set on Brassica campestris L. (foliage application, 192 g/ha), the “g (Brassica campestris L.) effect on crop grade” value is recorded as 0 (Herbicidal ratio of 5% or less (almost no effect)). Besides, the “e (Triticum aestivum) effect on crop grade” value in the data set with Triticum aestivum (foliage application, 192 g/ha) is given as 0 (Herbicidal ratio of 5% or less (almost no effect)). In data set [4] (setting [6]), the “A (Echinochloa oryzicola Vasing.) herbicidal ratio grade” value was 1 (Herbicidal ratio of 5% or more and less than 20%). In addition, in the data set with Monochoria vaginalis (setting [6]), the “C (Monochoria vaginalis) herbicidal ratio grade” value was 2 (Herbicidal ratio of 20% or more and less than 40%). The “B (Scirpus juncoides) herbicidal ratio grade” value with Scirpus juncoides (setting [6]) was 0 (Herbicidal ratio of 5% or less (almost no effect)).
